Structures can show the parent of a compound that is named as a salt. Where two headings read alike, the source gives them in different places.
Assays:
[1] = cited from earlier work
[2] = cited from earlier work; remark: listed apart in the source
[3] = Bench scale groundwater treatment with peroxide-coated ozone nanobubbles (1260 ppmV O3, 10% H2O2); assay type: physicochemical; settings: 1260 ppmV O3, 10% H2O2, 3 HR
[4] = 155 mg/L PFOA, 12 g/L persulfate, 80° C., cited from earlier work
[5] = cited from earlier work; for Water Solubility: at 25° C.
[6] = Bench scale soil treatment (2400 ppmV O3), groundwater over soil slurry; assay type: physicochemical; settings: for PFC concentration in groundwater over soil slurry, 30 MIN / PFC concentration in groundwater over soil slurry, 60 MIN / PFC concentration in groundwater over soil slurry, 120 MIN / % REMOVAL in groundwater over soil slurry: 2400 ppmV O3, 10% peroxide; for % REMOVAL in groundwater over soil slurry: start to 120 MIN
Description: (§1) On one foam fire-fighting site, samples of groundwater from monitoring well 1 (MW1) and soil samples between MW1 and monitoring well 3 (MW3) were shipped to the laboratory in coolers with blue ice packing to maintain the temperature at less than 4.4° C. (40° F.). Two sets of tests were conducted, groundwater and soil treatment.
(§2) For soil samples, 1000 cm^3 of soil was mixed together and then separated into four 250 cm^3 aliquots. The first was submitted as background (start) condition. The remaining three were treated with a fine bubble-coated ozone bubble solution from the pressurized generator (20-25 psi). The ozone concentration was 2400 ppmV with a flow of 5 cm^3/sec. The peroxide was 10% solution and supplied at 5 cm^3/min flow. The generator was filled with 500 liters of groundwater from the site well (MW1) which was delivered in 50 cm^3 surges to a two-liter flask with the soil under constant stirring action. The subsequent reaction raised the temperature of the soil/liquid solution from 20.6° C. (69° F.) to 22.8° C. (73° F.) after 10 minutes, reaching 41.1° C. (106° F.) after 30 minutes. For the 30-minute treatment, no further bubble solution was added; the flask was placed over water until bubbling ceased or two hours and then placed in chilled water. The overlying groundwater was decanted off, and the underlying semi-solid was placed in a glass jar and chilled for transport for analysis. A similar procedure was followed for the 60- and 120-minute soil aliquots.

[7] = cited from earlier work; remark: listed apart in the source
[8] = Bench scale soil treatment with peroxide-coated ozone nanobubbles (2400 ppmV O3), soil fraction; assay type: physicochemical; settings: for removal in the soil series: 2400 ppmV O3, 41.1° C. to 43.3° C.; for decomposing the other PF compounds (removal) by the new solution: matrix not given
Description: as §1, §2

[9] = Bench scale groundwater treatment with peroxide-coated ozone nanobubbles (1260 ppmV O3, 10% H2O2); assay type: physicochemical; settings: for PFC concentration in groundwater, 1 HR: 1260 ppmV O3, 10% H2O2, 1 HR; for PFC concentration in groundwater, 2 HR: 1260 ppmV O3, 10% H2O2, 2 HR; for % REMOVAL from groundwater: 1260 ppmV O3, 10% H2O2, start to last time point; for PFC concentration in groundwater, START: untreated start (0 minutes)
Description: as §1
Bench scale tests were conducted in a pressurized glass cylindrical reaction cell (17-20 psi) holding a laminar stainless steel spargepoint with a 0.20-micron porous surface. Four liters of groundwater were mixed together. A liter of distilled water as a blank was treated and set aside for analysis. The first liter of groundwater was also set aside as “start” condition (0 minutes). One liter of groundwater from MW1 was added to the cell. An ozone flow of 5 cm^3/sec was added at 1260 ppmV. Peroxide (10%) flow was 8 cm^3/minute and treated for 30 minutes. Pressure was 17-20 psi.
A second liter was added to the chamber and treated for 60 minutes. The blank, original (start), 30 minute, and 60 minute samples were placed in ice for analysis. A final sample (120 minute) was treated with 60 minutes of peroxide, but ozone continued for 120 minutes.

[10] = cited from earlier work; remark: listed apart in the source

Compound	Acidity (pKa) [1]	PFC concentration in groundwater, 3 HR [3]	PFC concentration in groundwater over soil slurry, 30 MIN [6]	PFC concentration in groundwater over soil slurry, 60 MIN [6]	PFC concentration in groundwater over soil slurry, 120 MIN [6]	% REMOVAL in groundwater over soil slurry [6] [%]	PFC concentration in groundwater over soil slurry, START [6]	PFC concentration in groundwater, 1 HR [9]	PFC concentration in groundwater, 2 HR [9]	% REMOVAL from groundwater [9] [%]	PFC concentration in groundwater, START [9]	decomposing the other PF compounds (removal) by the new solution [8] [%]	also measured
OO [H2O2, hydrogen peroxide]	11.7												
O=C(O)C(F)(F)C(F)(F)C(F)(F)C(F)(F)C(F)(F)C(F)(F)C(F)(F)F [PFOA, perfluorooctanoic acid]	0	9	22	4	3	91.2	34	17	13	73.6	34		Vapor Pressure at 20° C. [2]: 0.017 mm Hg; Fluoride ions formed (molar ratio) ([4]; 6 hours): 77.5%; carbon dioxide formed (molar ratio) ([4]; 6 hours): 70.2%; aqueous phase PFOA concentration after treatment ([4]; after 6 hours, 0.6 mg/L = detection limit): less than 0.6 mg/L; Solubility in water ([5]; Table 2): Soluble, 9.5 g/L; Water Solubility ([5]; purified): 9.5 × 10^3 (purified) mg/L; Solubility in other solvents [7]: Polar organic solvents; removal in the soil series [8]: over 97%; PFOA degraded ([10]; 1 M H2O2 and 0.5 mM iron (III), within 150 minutes): 94%; PFOA degradation ([10]; reactions generating O2^− or HO2^− alone): degraded rapidly
O=C(O)C(F)(F)C(F)(F)C(F)(F)C(F)(F)C(F)(F)F [PFHxA, perfluorohexanoic acid]		86	75	34	23	91.5	270	110	150	69.2	270	86.2	
O=S(=O)(O)C(F)(F)C(F)(F)C(F)(F)C(F)(F)C(F)(F)C(F)(F)F [PFHxS, perfluorohexane sulfonate]		42	87	14	8	97.4	300	100	110	86	300	98.1	
O=S(=O)(O)C(F)(F)C(F)(F)C(F)(F)C(F)(F)C(F)(F)C(F)(F)C(F)(F)C(F)(F)F [PFOS (Potassium Salt)]													Vapor Pressure at 20° C. [2]: 2.48 × 10^−6 mm Hg; Water Solubility ([5]; filtered seawater): (freshwater), 25 (filtered mg/L; Water Solubility ([5]; freshwater): 370 mg/L
O=C(O)C(F)(F)C(F)(F)C(F)(F)C(F)(F)F [PFPeA, perfluoropentanoic acid]		15	13	8	6	92.9	84	27	23	82.1	84	89.8	
O=S(=O)(O)C(F)(F)C(F)(F)C(F)(F)C(F)(F)C(F)(F)C(F)(F)C(F)(F)C(F)(F)F [PFOS, perfluorooctane sulfonate]	<<0	76	340	33	44	89.8	430	150	160	82.3	430		removal in the soil series [8]: over 99%

— patent US9694401B2, “Method and apparatus for treating perfluoroalkyl compounds” (ThinkVillage-Kerfoot, LLC, priority 2013, dated 2017)
